Results on seven molecules are retold here after publication PMC4539532 (Bioorganic & medicinal chemistry letters, 2015).

The target in one data set is mGlu1 (Homo sapiens, UniProt Q13255). The data set is described as follows: selectivity functional assay on mGlu1. Format: cell-based.
The target of the next data set is mGlu2 (Homo sapiens, UniProt Q14416). Briefly: selectivity functional assay on mGlu2. It is filed as cell-based.
The target in another data set is mGlu5 (Homo sapiens, UniProt P41594). Briefly: selectivity functional assay on mGlu5. Format: cell-based.
mGlu5, sequence (P41594 21-1212): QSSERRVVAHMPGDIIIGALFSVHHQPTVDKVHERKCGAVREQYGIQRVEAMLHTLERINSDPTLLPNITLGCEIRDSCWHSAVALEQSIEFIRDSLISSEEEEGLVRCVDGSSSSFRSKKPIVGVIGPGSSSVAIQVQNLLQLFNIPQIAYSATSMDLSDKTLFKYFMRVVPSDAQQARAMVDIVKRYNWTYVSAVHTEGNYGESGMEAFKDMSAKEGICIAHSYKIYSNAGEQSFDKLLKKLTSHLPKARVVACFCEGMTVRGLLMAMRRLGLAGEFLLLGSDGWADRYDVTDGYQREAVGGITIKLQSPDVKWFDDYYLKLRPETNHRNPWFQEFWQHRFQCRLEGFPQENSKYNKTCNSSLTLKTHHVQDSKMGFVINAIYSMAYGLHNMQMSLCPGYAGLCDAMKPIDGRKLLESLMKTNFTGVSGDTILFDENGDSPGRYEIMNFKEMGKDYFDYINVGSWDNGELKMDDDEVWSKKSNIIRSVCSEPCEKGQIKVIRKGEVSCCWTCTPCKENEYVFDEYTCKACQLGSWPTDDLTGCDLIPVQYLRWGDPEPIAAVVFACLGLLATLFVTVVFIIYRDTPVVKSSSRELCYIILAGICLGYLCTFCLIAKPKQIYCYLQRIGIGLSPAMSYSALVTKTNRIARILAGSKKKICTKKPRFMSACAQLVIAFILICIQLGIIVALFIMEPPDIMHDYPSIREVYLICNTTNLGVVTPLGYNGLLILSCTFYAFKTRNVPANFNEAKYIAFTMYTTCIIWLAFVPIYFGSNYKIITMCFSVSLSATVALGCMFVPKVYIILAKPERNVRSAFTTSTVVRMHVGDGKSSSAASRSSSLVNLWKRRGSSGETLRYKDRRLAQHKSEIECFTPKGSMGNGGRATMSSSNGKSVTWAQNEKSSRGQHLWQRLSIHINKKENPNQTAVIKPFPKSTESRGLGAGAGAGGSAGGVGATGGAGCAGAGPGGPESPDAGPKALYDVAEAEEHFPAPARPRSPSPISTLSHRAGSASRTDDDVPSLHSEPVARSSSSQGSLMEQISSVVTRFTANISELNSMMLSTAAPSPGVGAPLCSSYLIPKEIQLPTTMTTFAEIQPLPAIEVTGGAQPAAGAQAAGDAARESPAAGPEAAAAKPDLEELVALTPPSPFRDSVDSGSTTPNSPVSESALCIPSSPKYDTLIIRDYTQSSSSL
For a further data set, the target named is mGlu6 (Homo sapiens, UniProt O15303). The data set is described as follows: selectivity functional assay on mGlu6. It is filed as cell-based.
A further data set has as its target mGlu8 (Homo sapiens, UniProt O00222). Briefly: selectivity functional assay on mGlu8. Format: cell-based.
Data set [1] in a line: in vitro microsomal stability. The note with it: n=2, T1/2=Ln2/κ.
The target in the next data set is mGlu4 (Homo sapiens, UniProt Q14833). The data set is described as follows: competitive binding assay with [^3H]2 in mGlu4 transfected CHO cells. The settings on record: 14 versus 13; 23 versus 2.
mGlu4, sequence (Q14833 33-912): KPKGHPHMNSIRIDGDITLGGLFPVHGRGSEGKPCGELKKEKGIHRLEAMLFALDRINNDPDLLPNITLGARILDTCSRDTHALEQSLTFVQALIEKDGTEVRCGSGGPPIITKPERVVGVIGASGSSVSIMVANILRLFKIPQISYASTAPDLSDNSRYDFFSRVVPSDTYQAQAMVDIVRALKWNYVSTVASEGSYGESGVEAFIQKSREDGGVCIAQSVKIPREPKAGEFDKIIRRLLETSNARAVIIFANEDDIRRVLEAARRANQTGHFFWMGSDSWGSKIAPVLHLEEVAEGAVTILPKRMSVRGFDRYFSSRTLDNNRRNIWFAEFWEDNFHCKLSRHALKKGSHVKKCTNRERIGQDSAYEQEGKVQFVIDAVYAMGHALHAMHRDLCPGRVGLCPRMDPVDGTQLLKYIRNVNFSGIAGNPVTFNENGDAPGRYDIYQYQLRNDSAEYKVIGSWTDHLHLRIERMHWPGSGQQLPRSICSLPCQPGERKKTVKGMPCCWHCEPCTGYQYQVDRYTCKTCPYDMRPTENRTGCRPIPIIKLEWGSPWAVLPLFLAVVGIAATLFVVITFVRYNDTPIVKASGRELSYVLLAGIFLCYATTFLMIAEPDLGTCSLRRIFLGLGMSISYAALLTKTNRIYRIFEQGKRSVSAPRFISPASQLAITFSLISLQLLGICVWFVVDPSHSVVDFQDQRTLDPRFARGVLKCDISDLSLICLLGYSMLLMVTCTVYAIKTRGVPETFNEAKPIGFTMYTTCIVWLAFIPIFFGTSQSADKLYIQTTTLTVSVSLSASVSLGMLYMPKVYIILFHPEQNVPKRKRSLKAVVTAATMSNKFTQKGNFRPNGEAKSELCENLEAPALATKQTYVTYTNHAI
The conditions of data set [2]: cited from earlier work; for Tmax for brain: rat brain, intraperitoneal injection.
The conditions of data set [3]: PET ligand for PBR, cited from earlier work.

mGlu8, sequence (O00222 34-908): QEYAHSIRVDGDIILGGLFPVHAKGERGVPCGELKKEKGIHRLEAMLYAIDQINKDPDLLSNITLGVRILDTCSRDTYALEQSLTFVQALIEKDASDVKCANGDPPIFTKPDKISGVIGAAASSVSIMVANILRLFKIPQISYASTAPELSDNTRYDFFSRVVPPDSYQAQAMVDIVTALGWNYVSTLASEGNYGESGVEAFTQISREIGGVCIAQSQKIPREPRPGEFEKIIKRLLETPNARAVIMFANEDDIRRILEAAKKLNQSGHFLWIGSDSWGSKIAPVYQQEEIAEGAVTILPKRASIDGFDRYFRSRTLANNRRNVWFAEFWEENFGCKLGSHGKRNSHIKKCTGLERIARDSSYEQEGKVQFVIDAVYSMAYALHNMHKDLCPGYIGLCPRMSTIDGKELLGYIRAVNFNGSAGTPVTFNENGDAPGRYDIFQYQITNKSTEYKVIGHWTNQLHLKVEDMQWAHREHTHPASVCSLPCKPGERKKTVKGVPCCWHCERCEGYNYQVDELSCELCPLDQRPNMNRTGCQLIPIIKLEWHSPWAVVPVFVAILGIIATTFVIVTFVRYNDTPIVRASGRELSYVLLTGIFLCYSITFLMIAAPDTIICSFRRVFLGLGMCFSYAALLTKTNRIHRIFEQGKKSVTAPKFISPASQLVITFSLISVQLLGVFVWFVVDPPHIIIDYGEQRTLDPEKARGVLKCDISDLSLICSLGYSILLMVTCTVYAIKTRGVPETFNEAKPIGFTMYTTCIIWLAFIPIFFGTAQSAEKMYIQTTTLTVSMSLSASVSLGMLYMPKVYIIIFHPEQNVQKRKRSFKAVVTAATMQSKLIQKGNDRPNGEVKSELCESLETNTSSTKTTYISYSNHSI
mGlu2, sequence (Q14416 19-872): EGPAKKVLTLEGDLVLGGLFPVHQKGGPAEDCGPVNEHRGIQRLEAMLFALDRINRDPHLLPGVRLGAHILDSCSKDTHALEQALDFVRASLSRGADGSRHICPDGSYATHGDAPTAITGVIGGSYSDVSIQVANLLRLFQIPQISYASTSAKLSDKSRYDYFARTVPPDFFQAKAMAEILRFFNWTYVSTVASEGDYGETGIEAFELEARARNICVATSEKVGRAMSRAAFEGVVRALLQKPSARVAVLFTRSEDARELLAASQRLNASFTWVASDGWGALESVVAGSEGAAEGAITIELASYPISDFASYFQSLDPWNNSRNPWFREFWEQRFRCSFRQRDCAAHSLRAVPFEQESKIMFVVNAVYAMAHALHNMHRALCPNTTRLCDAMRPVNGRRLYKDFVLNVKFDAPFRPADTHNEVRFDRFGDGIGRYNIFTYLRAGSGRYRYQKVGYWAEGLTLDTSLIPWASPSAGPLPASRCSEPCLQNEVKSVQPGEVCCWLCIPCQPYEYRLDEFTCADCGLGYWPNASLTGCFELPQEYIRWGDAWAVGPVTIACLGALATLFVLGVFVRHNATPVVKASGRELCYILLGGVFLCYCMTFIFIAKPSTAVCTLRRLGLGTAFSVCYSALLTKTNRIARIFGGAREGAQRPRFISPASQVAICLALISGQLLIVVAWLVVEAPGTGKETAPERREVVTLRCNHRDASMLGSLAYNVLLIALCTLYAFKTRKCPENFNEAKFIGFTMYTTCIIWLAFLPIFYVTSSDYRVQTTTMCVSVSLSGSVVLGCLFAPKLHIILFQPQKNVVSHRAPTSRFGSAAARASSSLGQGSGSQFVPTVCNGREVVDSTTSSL
mGlu1, sequence (Q13255 19-1194): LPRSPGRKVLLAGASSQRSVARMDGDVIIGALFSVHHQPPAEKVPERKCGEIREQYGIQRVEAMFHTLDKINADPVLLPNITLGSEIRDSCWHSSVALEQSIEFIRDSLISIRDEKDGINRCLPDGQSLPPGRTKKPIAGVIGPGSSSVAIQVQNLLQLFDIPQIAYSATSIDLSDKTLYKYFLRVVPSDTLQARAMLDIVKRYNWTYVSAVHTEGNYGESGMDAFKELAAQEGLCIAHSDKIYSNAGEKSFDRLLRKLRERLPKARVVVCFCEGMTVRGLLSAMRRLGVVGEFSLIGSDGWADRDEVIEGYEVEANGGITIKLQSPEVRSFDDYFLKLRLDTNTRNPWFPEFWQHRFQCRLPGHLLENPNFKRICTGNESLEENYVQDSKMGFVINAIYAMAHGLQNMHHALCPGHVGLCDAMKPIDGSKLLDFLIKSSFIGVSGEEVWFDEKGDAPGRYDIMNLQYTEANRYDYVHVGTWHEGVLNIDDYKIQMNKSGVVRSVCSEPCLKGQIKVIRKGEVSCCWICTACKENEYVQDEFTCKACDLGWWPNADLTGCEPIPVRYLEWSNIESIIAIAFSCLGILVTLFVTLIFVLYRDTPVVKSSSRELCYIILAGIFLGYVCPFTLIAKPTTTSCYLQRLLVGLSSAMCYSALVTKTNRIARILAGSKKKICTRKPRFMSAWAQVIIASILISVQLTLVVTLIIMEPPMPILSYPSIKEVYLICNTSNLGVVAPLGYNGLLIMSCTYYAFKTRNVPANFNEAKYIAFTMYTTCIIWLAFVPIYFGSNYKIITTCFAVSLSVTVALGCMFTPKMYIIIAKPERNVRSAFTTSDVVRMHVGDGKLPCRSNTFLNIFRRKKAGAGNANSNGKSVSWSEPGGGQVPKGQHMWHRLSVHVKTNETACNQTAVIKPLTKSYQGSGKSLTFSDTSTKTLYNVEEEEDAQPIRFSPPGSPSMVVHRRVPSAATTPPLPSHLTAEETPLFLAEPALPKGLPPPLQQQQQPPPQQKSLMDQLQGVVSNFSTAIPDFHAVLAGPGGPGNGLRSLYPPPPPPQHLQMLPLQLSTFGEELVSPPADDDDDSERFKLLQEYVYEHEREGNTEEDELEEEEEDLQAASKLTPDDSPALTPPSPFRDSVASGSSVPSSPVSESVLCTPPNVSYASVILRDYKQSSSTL

Turning to `[2H]C([2H])(F)Oc1cc(NC(=O)c2ccccn2)ccc1Cl` [Compound 24], the “activity against mGlu1” value on mGlu1 is “little activity”. Further, the “activity against mGlu2” value on mGlu2 is on record as “little activity”. In addition, the “activity against mGlu5” value at mGlu5 is given as “little activity”. For the same molecule, the “activity against mGlu6” value on mGlu6 is “little activity”. The “activity against mGlu8” value at mGlu8 is reported as “little activity”. Also, the “κ (decay constant, slope of log concentration vs time profile)” value in [1] is listed as 0.093.

In the case of `O=C(Nc1ccc(Cl)c(OCF)c1)c1ccccn1` [Compound 23], in data set [1], the “κ (decay constant, slope of log concentration vs time profile)” value turned out to be 0.120. Besides, on mGlu4, the “fold enhancement in affinity” value worked out at 1.6 fold.

`CSc1cccc(NC(=O)c2ccccn2)c1` [Compound 14]: the “fold enhancement in affinity” value at mGlu4 came out at 2.8 fold.

`O=C(Nc1cccc(OC(F)F)c1)c1ccccn1` [Compound 3]: the Tmax for brain in [2] was 30 min. Moreover, the “brain:plasma (B/P) partition coefficient” value in data set [2] (rat, AUC0–8h, Brain/AUC0–8h, Plasma) is reported as 9.9. The “κ (decay constant, slope of log concentration vs time profile)” value in [1] is recorded as 0.132.

Take `[2H]C([2H])([18F])Oc1ccc(OC)cc1CN(C(C)=O)c1cc(F)ccc1Oc1ccccc1` [N-(5-fluoro-2-phenoxyphenyl)-N-(2-[^18F]fluoromethoxy-d2-5-methoxybenzyl)acetamide]: the “half time (T1/2) in the brain” value in data set [3] (brain) is reported as more than 60 min. Moreover, the “half time (T1/2) in the plasma” value in data set [3] (plasma) was 2.575 min.

`COc1cc(NC(=O)c2ccccn2)ccc1Cl` [Compound 2]: the Tmax for brain in data set [2] was 30 min. The “κ (decay constant, slope of log concentration vs time profile)” value in data set [1] is 0.141.

For `Cc1ccnc(Nc2nc(-c3cn[nH]c3)c(C)s2)n1` [Compound 4], the “κ (decay constant, slope of log concentration vs time profile)” value in [1] stood at 0.099.
